Like-named read-outs stand apart in the source and are kept apart here.
Legend:
[1] = test system: lipid peroxidation (MDA formation) in brain homogenates; test: Test of formation of malondialdehyde (MDA), non-enzymatic lipid peroxidation triggered by ferrous sulfate in brain homogenates; format: biochemical, S-D rats; settings: brain homogenate, 60 minutes at 37° C.
Method: 1.1 MDA formation was measured on 10-fold diluted (V/V) homogenates of brains of S-D rats (200 g) prepared in Krebs buffer pH 7.4 under the conditions described in J. Biol. Chem., Vol. 262 (1987), p. 10438 to 10440. 1 ml of homogenate was incubated for 60 minutes at 37° C. in the presence of 25 microliters of ethanol or water or a mixture of the two depending on the product containing or not containing the test product, after the addition of 25 microliters of ferrous sulfate solution prepared immediately before use in water outgassed with argon (200 micromoles final). 0.25 ml of incubated mixture were withdrawn and 1.5 ml of 1% strength phosphoric acid, 0.25 ml of a solution containing 200 micromoles of deferoxamine (Desferal^.phi., Ciba Geigy) in water, 10 microliters of butylated hydroxy-toluene (BHT) at a concentration of 8.7 mg/ml in ethanol and 0.5 ml of thiobarbituric acid (TBA) at a concentration of 0.6% in water were added. The mixture was heated to 100° C. for 45 minutes and cooled. 4 ml of n-butanol were added and the mixture was centrifuged for 15 minutes at 4000 rpm and the OD of the supernatant fraction was then read at 535 nm. The reaction blanks in the absence of Fe^++ were incubated under the same conditions.

[2] = test system: lipid peroxidation (MDA formation) in rat liver microsomes; test: Test of formation of malondialdehyde (MDA), non-enzymatic lipid peroxidation triggered by ferrous sulfate in rat liver microsomes; format: biochemical, S-D rats; settings: ferrous sulfate/ascorbate, pH 7.4, 15 minutes at 37° C.
Method: The reaction was stopped by adding 2 ml of a 1M solution of trichloroacetic acid in 0.25M hydrochloric acid containing 0.4% of thiobarbituric acid. The mixture was heated to 85° C. for 25 minutes, cooled and centrifuged for 15 minutes at 3500 rpm, and the OD of the supernatant fraction was then read at 535 nm. The reaction blanks in the absence of Fe^++ were performed at the same time. The percentage inhibition was calculated as above.

[3] = test system: lipid peroxidation (MDA formation) in rat liver microsomes; settings: liver microsomes of phenobarbital-pretreated rats, NADPH/carbon tetrachloride, pH 7.4, 15 minutes at 37° C.

**Q.** Which “percentage inhibition (MDA formation)” value ([1]; 1 * 10^-4 M) does the source give for `C[C@]12CCC(=O)C=C1C=C[C@@H]1[C@@H]2[C@@H](O)C[C@@]2(C)[C@H]1CC[C@@]2(O)C#CCN1CCN(c2cc(N3CCCC3)nc(N3CCCC3)n2)CC1` [Example 1, 17α-[3-{4-[(2,6-bis(1-pyrrolidinyl)-4-pyrimidinyl]-1-piperazinyl}-1-propynyl]-Δ^4,6-androstadien-11β,17β-diol-3-one methanesulfonate] here?
**A.** 9.8 ± 11.2%

**Q.** What about the “percentage inhibition (MDA formation)” value ([1]; 1 * 10^-5 M) of the same compound?
**A.** -10.6 ± 9.0%

**Q.** And the “percentage inhibition (MDA formation)” value ([1]; 5 * 10^-4 M)?
**A.** 60.8 ± 3.0%

**Q.** What about the “percentage inhibition (MDA formation)” value ([2]; 1*10^-5 M) of the same compound?
**A.** 46 ± 3%

**Q.** And the “percentage inhibition (MDA formation)” value ([2]; 1*10^-6 M)?
**A.** 0 ± 18%

**Q.** What about the “percentage inhibition (MDA formation)” value ([2]; 5*10^-5 M) of the same compound?
**A.** 97.5 ± 0.5%

**Q.** And the “percentage inhibition (MDA formation)” value ([2]; 5*10^-6 M)?
**A.** 19.5 ± 6%

**Q.** What about the “percentage inhibition (MDA formation)” value ([3]; 1*10^-5 M) of the same compound?
**A.** 86 ± 2%

**Q.** What about the “percentage inhibition (MDA formation)” value ([3]; 1*10^-6 M) of the same compound?
**A.** 16 ± 1%

**Q.** And the “percentage inhibition (MDA formation)” value ([3]; 5*10^-6 M)?
**A.** 75 ± 4%

**Q.** `CC1=C[C@@H]2[C@H]([C@@H](O)C[C@@]3(C)[C@H]2CC[C@@]3(O)C#CCN2CCN(c3cc(N4CCCC4)nc(N4CCCC4)n3)CC2)[C@@]2(C)C=CC(=O)C=C12` [Example 2] was tested. Which “percentage inhibition (MDA formation)” value ([1]; 1 * 10^-4 M) did it give?
**A.** 26.6 ± 3.9%

**Q.** What about the “percentage inhibition (MDA formation)” value ([1]; 1 * 10^-5 M) of the same compound?
**A.** 28.0 ± 4.1%

**Q.** What about the “percentage inhibition (MDA formation)” value ([1]; 5 * 10^-4 M) of the same compound?
**A.** 53.1 ± 7.8%

**Q.** What about the “percentage inhibition (MDA formation)” value ([2]; 1*10^-5 M) of the same compound?
**A.** 11.3 ± 2%

**Q.** And the “percentage inhibition (MDA formation)” value ([2]; 1*10^-6 M)?
**A.** 0 ± 2%

**Q.** What about the “percentage inhibition (MDA formation)” value ([2]; 5*10^-5 M) of the same compound?
**A.** 85 ± 1.5%

**Q.** What about the “percentage inhibition (MDA formation)” value ([2]; 5*10^-6 M) of the same compound?
**A.** 0 ± 3%

**Q.** And the “percentage inhibition (MDA formation)” value ([3]; 1*10^-5 M)?
**A.** 80 ± 1%

**Q.** What about the “percentage inhibition (MDA formation)” value ([3]; 1*10^-6 M) of the same compound?
**A.** 22 ± 1.5%

**Q.** What about the “percentage inhibition (MDA formation)” value ([3]; 5*10^-6 M) of the same compound?
**A.** 61 ± 1.5%

**Q.** What does the source list for `CCN(CC)c1ccc(N2CCN(CC#C[C@]3(O)CC[C@H]4[C@@H]5C=C(C)C6=CC(=O)C=C[C@]6(C)[C@H]5[C@@H](O)C[C@@]43C)CC2)nc1N(CC)CC` [Example 3, 17α-[3-{4-[5,6-bis(diethylamino)-2-pyridyl]-1-piperazinyl}-1-propynyl]-6-methyl-Δ^1,4,6-androstatrien-11β,17β-diol-3-one]?
**A.** percentage inhibition (MDA formation) ([1]; 1 * 10^-4 M): 62.9 ± 4.5%; percentage inhibition (MDA formation) ([1]; 1 * 10^-5 M): 51.3 ± 13.7%; percentage inhibition (MDA formation) ([1]; 5 * 10^-4 M): 64.2 ± 10%; percentage inhibition (MDA formation) ([2]; 1*10^-5 M): 95.5%; percentage inhibition (MDA formation) ([2]; 1*10^-6 M): 55 ± 9%; percentage inhibition (MDA formation) ([2]; 5*10^-6 M): 99.5%; percentage inhibition (MDA formation) ([3]; 1*10^-5 M): 93%; percentage inhibition (MDA formation) ([3]; 1*10^-6 M): 48 ± 2%; percentage inhibition (MDA formation) ([3]; 5*10^-6 M): 89 ± 2%

**Q.** Which results are given for `CCN(CC)c1ccc(N(CC)CC)c(N2CCN(CC#C[C@]3(O)CC[C@H]4[C@@H]5C=C(C)C6=CC(=O)C=C[C@]6(C)[C@H]5[C@@H](O)C[C@@]43C)CC2)n1` [Example 4, 17α-[3-{4-[3,6-bis(diethylamino)-2-pyridyl]-1-piperazinyl}-1-propynyl]-6-methyl-Δ^1,4,6-androstatrien-11β,17β-diol-3-one]?
**A.** percentage inhibition (MDA formation) ([1]; 1 * 10^-4 M): 51.0 ± 12.4%; percentage inhibition (MDA formation) ([1]; 1 * 10^-5 M): 48.5 ± 13.1%; percentage inhibition (MDA formation) ([1]; 5 * 10^-4 M): 65.4 ± 10.1%; percentage inhibition (MDA formation) ([2]; 1*10^-5 M): 100%; percentage inhibition (MDA formation) ([2]; 1*10^-6 M): 51 ± 3%; percentage inhibition (MDA formation) ([2]; 5*10^-6 M): 99.5%; percentage inhibition (MDA formation) ([3]; 1*10^-5 M): 91 ± 2%; percentage inhibition (MDA formation) ([3]; 1*10^-6 M): 49 ± 2%; percentage inhibition (MDA formation) ([3]; 5*10^-6 M): 85%

— patent US5081113A, “Novel 3-keto-steroids” (Roussel Uclaf, priority 1989, dated 1992)
